Measurements taken from PMC9147192, “Small Molecule Arranged Thermal Proximity Coaggregation (smarTPCA)—A Novel Approach to Characterize Protein–Protein Interactions in Living Cells by Similar Isothermal Dose–Responses” (International Journal of Molecular Sciences, 2022).
“And” between values parts separate entries of the source, which are not always exact repeats. Equal values may be shown once. Read-outs that look alike come from different tables or passages of the source.

Tests used:
[1] = molecular target: T1, GSK-3α (Homo sapiens, UniProt P49840); assay: CETSA in HL-60 cell extract, immunoblot; format: binding; conditions: for ΔTm at 20 µM / Tm (GSK-3α): 20 µM inhibitor; for Tm difference vs DMSO, same protein: inhibitor minus DMSO; for Tm (fitted melting curve): in °C; for Tm: GSK-3α, cell extract
T1 construct: parallel detection of MAPK14, MAPKAPK2, MAPKAPK3, and GSK-3α; endogenous in cells; host or cells: HL-60 (ATCC CCL-240), living cells or cell extract
Method: (§1) For the differentiation of primary and secondary binding effects, CETSA experiments using cell extracts instead of living cells (cell extract test) are proposed in the literature. Therefore, we performed CETSA assays in HL-60 cell extracts under the same conditions as for living cells (Figure 1, Table 1, Supplementary Table S6).
(§2) HL-60 cells were expanded as described above for CETSA and TPP-TR to about 1.25 million cells per ml. 50 mL of the cell suspension, respectively, was transferred into 50 mL conical tubes. After centrifugation (300 rcf, 3 min, r.t.) and removing all of the supernating culture medium, the cells were washed twice with 25 mL PBS (r.t.) by gently resuspending the cells, followed by centrifugation (300 rcf, 3 min, r.t.) and the removal of the supernatant. The cells were transferred into pre-weighed 2 mL LoBind Eppendorf tubes using 1 mL PBS (r.t.), respectively, for resuspending. After centrifugation (300 rcf, 3 min, r.t.) and removing as much as possible of the supernatants, the cell wet weights were determined. The cells were stored at −80 °C after shock-freezing in liquid nitrogen.
(§3) Cell extracts were obtained by four freeze/thaw cycles as described above for CETSA and TPP-TR using 10 µL ice cold PBS supplemented with protease inhibitors per milligram of cell pellet wet weight for the initial resuspension of the pellet, followed by centrifugation (20,000 rcf, 30 min, 4 °C), and the recovery of the supernatant. After determining the protein content, the cell extracts were diluted to 1.8 mg/mL total protein concentration using ice-cold PBS supplemented with protease inhibitors and aliquots of 99 µL in PCR tube strips, and 1.1 mL in LoBind 1.5 mL Eppendorf tubes were shock-frozen in liquid nitrogen and stored at −80 °C or directly processed.
(§4) A fourth aliquot of 1.8 mg/mL HL-60 cell extract was supplemented with 2.2 µL of DMSO. […] After a brief centrifugation using a benchtop centrifuge, the temperature treatment at the ten different temperatures was performed as described in Section 4.1.1.
(§5) Additionally, the preparation of cell extracts containing the fraction of soluble, non-denatured proteins was performed as described in Section 4.1.1. for living cells, but omitting the freeze/thaw steps for cell lysis.
(§6) For each sample set comprising either ten temperature range samples or ten compound concentration range samples, the same volume of the cell extracts containing the fraction of soluble, non-denatured proteins was used for further analysis. This volume was determined using the two lowest temperature samples (36.5 and 41.2 °C) per temperature range sample set so that they contained an average of 5 µg total protein (e.g., 2.78 µL for all temperature range samples of a sample set whose two lowest temperature samples contain an average of 1.8 mg/mL protein). For the compound concentration range experiments, all samples of a set were used for averaging. The calculated volume was respectively transferred into PCR tubes of a tube strip, supplemented with SDS sample buffer (final concentrations: 25 mM dithiothreitol (DTT), 7.5% glycerol, 3% SDS, 37.5 mM Tris/HCl pH 7.0, 0.005% bromophenol blue), incubated for 10 min at r.t. and applied to SDS-PAGE under external cooling in an ice bath (MW marker: PageRuler pre-stained protein ladder (Thermo scientific, Waltham, MA, USA); NuPAGE 4–12% Bis-Tris Gels, 1.0 mm, Midi Protein Gel, 26-well (Thermo fisher scientific); ice cold MOPS SDS running buffer (50 mM MOPS, 50 mM Tris base, 0.1% SDS, 0.003% EDTA (free acid)); 50 V for 15 min, then 200 V for about 1.5 h, i.e., the rest of the run).

[2] = molecular target: MAPKAPK2 (Homo sapiens, UniProt P49137); assay: CETSA in HL-60 cell extract, immunoblot; format: binding; conditions: for Tm difference vs DMSO, same protein: MAPKAPK2, inhibitor minus DMSO
Method: as §1, §2, §3, §4, §5, §6

[3] = read-out: ΔTm to DMSO in Cell Extract Compared to Living Cells (GSK-3α)
[4] = CETSA in cell extract (lysate), GSK3a
[5] = HL-60 cell extract, immunoblot, read-out: ΔTm to DMSO (GSK-3α)
[6] = MAPKAPK2, cell extract, immunoblot

Sequence of MAPKAPK2 (P49137 whole entry): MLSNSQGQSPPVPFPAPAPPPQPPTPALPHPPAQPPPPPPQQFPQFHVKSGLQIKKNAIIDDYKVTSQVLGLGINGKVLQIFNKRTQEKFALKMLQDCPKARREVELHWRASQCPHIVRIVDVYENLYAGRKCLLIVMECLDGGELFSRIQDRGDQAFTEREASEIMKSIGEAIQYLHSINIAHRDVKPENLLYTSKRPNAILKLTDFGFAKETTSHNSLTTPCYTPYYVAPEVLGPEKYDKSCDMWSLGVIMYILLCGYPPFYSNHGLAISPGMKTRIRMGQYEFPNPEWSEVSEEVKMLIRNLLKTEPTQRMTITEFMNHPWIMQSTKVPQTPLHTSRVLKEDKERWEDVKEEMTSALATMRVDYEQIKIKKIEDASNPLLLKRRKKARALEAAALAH
T1 sequence (P49840 whole entry): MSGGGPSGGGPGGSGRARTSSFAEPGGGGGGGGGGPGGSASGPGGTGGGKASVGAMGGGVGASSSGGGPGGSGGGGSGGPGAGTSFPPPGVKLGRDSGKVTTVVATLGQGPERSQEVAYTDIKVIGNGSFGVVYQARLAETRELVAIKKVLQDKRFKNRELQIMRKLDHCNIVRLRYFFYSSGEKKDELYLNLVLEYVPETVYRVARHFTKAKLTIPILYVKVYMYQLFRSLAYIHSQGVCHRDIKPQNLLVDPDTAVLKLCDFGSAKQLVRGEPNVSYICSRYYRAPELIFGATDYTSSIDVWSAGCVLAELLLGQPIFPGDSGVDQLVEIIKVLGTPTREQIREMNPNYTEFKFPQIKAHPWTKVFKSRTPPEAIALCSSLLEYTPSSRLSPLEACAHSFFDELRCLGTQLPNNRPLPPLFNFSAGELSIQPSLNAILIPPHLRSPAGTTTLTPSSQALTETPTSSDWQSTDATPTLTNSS

Compound | ΔTm at 20 µM [1, 3] | Tm difference vs DMSO, same protein [1, 4] | Tm (fitted melting curve) [1, 4] | Tm ([1]; immunoblot) | Tm (GSK-3α) ([1]; HL-60 cell extract, immunoblot) | ΔTm at 20 µM [1, 5] | ΔTm to DMSO in Cell Extract Compared to Living Cells (MAPKAPK2) ([2]; 20 µM inhibitor) | Tm difference vs DMSO, same protein ([2]; CETSA in cell extract (lysate)) | Tm (fitted melting curve) ([2]; CETSA in cell extract (lysate), MAPKAPK2, in °C) | Tm (MAPKAPK2) ([2]; HL-60 cell extract, 20 µM inhibitor, immunoblot) | ΔTm to DMSO (MAPKAPK2) ([2]; HL-60 cell extract, 20 µM inhibitor, immunoblot, 20 µM) | ΔTm to DMSO in cell extract compared to living cells ([2]; MAPKAPK2, cell extract minus living cells) | Tm [2, 6] | ΔTm to DMSO [2, 6] | Tm (fitted melting temperature) ([1]; CETSA in cell extract (lysate), GSK3a, melting curve fit, in °C (unit assumed)) | ΔTm at 20 µM ([2]; 20 µM inhibitor, read-out: ΔTm to DMSO in Cell Extract Compared to Living Cells (MAPKAPK2)) | ΔTm at 20 µM ([2]; HL-60 cell extract, 20 µM inhibitor, immunoblot, read-out: ΔTm to DMSO (MAPKAPK2))
Cn1c(NC[C@@H](N)Cc2ccccc2)nc(-c2ccncc2)c(-c2ccc3ccccc3c2)c1=O [AMG-548] | -0.05 °C | -0.76 | 48.26 | 48.26 °C | 48.26 °C | -0.76 °C | −2.22 °C | 2.96 | 51.06 | 51.06 °C | 3.0 °C and 2.96 °C | -2.22 °C | 51.06 °C | 2.96 °C | – | – | –
Cc1cnc(Nc2ccc(F)cc2Cl)nc1-c1c[nH]c(C(=O)N[C@H](CO)c2cccc(Cl)c2)c1 [ERK 11e] | 1.1 °C | 1.24 | 50.25 | 50.25 °C | 50.25 °C | 1.24 °C | – | 0.23 | – | – | – | – | – | – | 50.2547 | 0.25 °C | 0.23 °C
